From US6811990B1, “Methods and compositions for coupled luminescent assays” (priority 2001, dated 2004) come the findings set out here.

Where two headings read alike, the source gives them in different places.

One data set deals with G3PDH or PGK. The experiment in a line: Stop reagent test in DeathTRAK reaction with G3PDH test enzyme. The format is biochemical. The conditions noted are these: ~3 mM final BPV, added after 21 minutes, with and without added PGK. An excerpt: In another aspect, the present invention provides methods and compositions for a single-timepoint coupled luminescent assay, making use of a stop reagent to end the production of the high-energy molecule that is the luciferase substrate, while allowing the luciferase reaction to continue. In a preferred embodiment of this concept, an inhibitor of G3PDH or PGK is used to stop production of ATP in the DeathTRAK reactions of Examples 1 and 2. […] It is also possible to perform a single read without a stop reagent, but the stop reagent allows the read to be done at a time convenient to the user, multiple times, or for an extended period. […] Any molecule which inhibits G3PDH and/or PGK, but inhibits luciferase to a lesser or insignificant degree, might be used.
To a 0.5-mL aliquot of this cocktail, 0.0016 mL of 1:1,000,000-diluted PGK were added (termed “+PGK” cocktail). Two 0.045-mL aliquots of the standard unoptimized cocktail and two 0.045-mL aliquots of the “+PGK” cocktail were measured into a luminescent microtiter plate. 0.005 mL of 1:100,000-diluted G3PDH was transferred to each of these four aliquots of cocktail. […] Use of this or an alternative stop reagent allows the user to delay reading the plate, while maintaining the relative signal strengths of the samples.

The subject of data set [1] is Group-A Streptococci.
Protocol: (§3) The A600 was 0.356. […] After washing the cells were grown for 90 minutes at 37C with 240 rpm shaking. Antibiotics or PBS (vehicle) were then added in 5 μL, and the protective cocktail containing dithiothreitol and protease inhibitor cocktail was added in a further 5 μL. The cells were incubated at 37C with 240 rpm shaking for a further 90 minutes, whereupon the DeathTRAK cocktail was added and the cytotoxicity read as described above for Gram negatives. The total-lysis agent, 10 μL of 2% Nonidet P-40, was then added, and the proliferation/viability signal was read as above for Gram negatives.
A further data set has as its system E. coli. The experiment in a line: Colony-forming unit (CFU) tests of antibiotic-treated cultures. The conditions noted are these: E. coli cultures plated at various dilutions. The class given is cell-based.
The subject of data set [2] is E. coli strain K1. Description: DeathTRAK cytotoxicity mode, antibiotics on E. coli. The procedure: (§1) FIGS. 13-15 illustrate the use of cytotoxicity/proliferation mode to characterize the effects of various antibiotics on E. coli cells. First, the cytotoxicity signal was obtained by adding the DeathTRAK reagent cocktail directly to the toxicity reaction, three hours after the antibiotics were added to the E. coli culture. The luminance was measured and recorded (FIG. 13), whereupon the lytic agent was added, and the luminance was immediately measured again (FIG. 14).
(§2) E. coli (strain K1, obtained from Dr. Craig Rubens of Children's Hospital and Regional Medical Center, Seattle, Wash.) were inoculated from a frozen permanent into 1-2 mL of LB, grown overnight, diluted 1:20 into LB, grown a further 106 minutes at 37C with 240 rpm shaking, harvested by centrifugation, washed twice with LB, and resuspended to a final A600 of 1.549. It was determined by colony-forming unit assays that an A600 of 2.18 corresponds to ˜3.02×10^8 cells/mL. This was diluted to 200,000/mL and a 10% volume of 10 mM dithiothreitol and 1% protease inhibitor cocktail in LB was added (yielding 0.1% protease inhibitor cocktail after mixing). 55 μL of this mixture was distributed to each test well of a 96-well white luminance microtiter plate, whereupon 5 μL of antibiotic or PBS (vehicle) was added. The plate was shaken at 240 rpm for 3 hours at 37C. 40 μL of DeathTRAK cocktail was then added and luminance was read for ˜8 minutes. The lytic agent was then made up as equal parts 6000 units/mL polymyxin B and 50% lysozyme, both in PBS. 10 μL of this lytic agent was added to each well and the second luminance readout (proliferation/viability) was taken.

Data set [3] concerns E. coli strain K1. Description: DeathTRAK proliferation/viability mode after polymyxin B/lysozyme lysis, antibiotics on E. coli. The format is cell-based. The following applies: for Proliferation/Viability: E. coli, Table V, DeathTRAK readout after lytic agent. The procedure: as §1, §2
Data set [4] deals with Group-A Streptococci. Description: DeathTRAK proliferation/viability mode after Nonidet P-40 lysis, Group-A Streptococci. The format is cell-based, Group-A Streptococcus. The conditions noted are these: 90 minutes with antibiotic, after Nonidet P-40 lysis (FIG. 17). An excerpt: These are Gram positive organisms. […] However, both cytotoxicity and proliferation effects are seen. […] Finally, the result with gentamicin is distinctive.

Data set [5] deals with Group-A Streptococci. Description: DeathTRAK cytotoxicity mode, antibiotics on Group-A Streptococci. The conditions noted are these: 90 minutes with antibiotic (FIG. 16).
Protocol: as §3
The subject of the next data set is DeathTRAK signal. Description: Effect of detergent on the DeathTRAK signal. The class given is biochemical. The following applies: at 0.1% Nonidet P-40; changes very little above approximately 0.1%. An excerpt: FIG. 12 illustrates the use of cytotoxicity/proliferation mode to measure both the cytotoxic effects and the total cell number after addition of the detergent Nonidet P40 to the mammalian cell line 841 CON. Similar results have been obtained with the PC-3 prostate cancer and T24 bladder-cancer cell lines. In these experiments, the detergent is used as both the toxin and the final lytic agent. Thus the cytotoxicity signal in FIG. 12 represents the signal obtained after the indicated quantities of detergent were added to the cells, and the proliferation signal in the same figure represents the signals obtained after an additional 0.2% Nonidet P-40 was added to all the cells. […] Thus Nonidet P-40 can be used as the universal lytic agent for measuring proliferation of mammalian cells, provided that if it is desired to compare the cytotoxicity and proliferation signals, the final signal must be corrected for the inhibitory effect of the detergent. If the final detergent concentration used is above approximately 0.1%, then this correction will consist essentially of multiplication by a constant. However, if proliferation signals alone are to be compared, this correction is not necessary. Note that in FIG. 12, the proliferation signal is fairly constant. This is because each experiment began with the same number of cells seeded into each well. […]

Setting [6] is: E. coli K1, three hours with antibiotic, after lytic agent (FIG. 14).

Regarding `O=C(O)C(=O)CBr` [BPV, bromopyruvic acid], the “increase in luminance (ATP production) in DeathTRAK reaction” value with G3PDH or PGK is “stopped the increase in luminance”.

As for `CC1(C)S[C@@H]2[C@H](NC(=O)C(C(=O)O)c3ccccc3)C(=O)N2[C@H]1C(=O)O` (some centres unmarked) [Carbenicillin], the cytotoxicity signal result with Group-A Streptococci [1] is “identified as a lytic agent”; with E. coli strain K1 [2] it was “strong cytotoxicity”. Further, in the data set on E. coli, the “toxicity by CFU assay” value is “toxic”. For the same compound, the Cytotoxicity result in the data set on E. coli strain K1 [2] is given as “+”. Further, the effect on proliferation/viability result in the data set on E. coli strain K1 [3] (setting [6]) was “strong inhibitory effect on proliferation/viability”. Moreover, the Proliferation/Viability entry in the data set with E. coli strain K1 [3] was “+”.

For the compound `Nc1ccc(S(N)(=O)=O)cc1` [Sulfanilamide], in the data set with E. coli strain K1 [2], the Cytotoxicity result was “−” and the cytotoxicity signal entry is given as “no toxicity”. The effect on proliferation/viability entry with E. coli strain K1 [3] (setting [6]) is reported as “no toxicity or effect on proliferation/viability”.

On to `CN[C@H](CC(C)C)C(=O)N[C@H]1C(=O)N[C@@H](CC(N)=O)C(=O)N[C@H]2C(=O)N[C@H]3C(=O)N[C@H](C(=O)N[C@H](C(=O)O)c4cc(O)cc(O)c4-c4cc3ccc4O)[C@H](O)c3ccc(c(Cl)c3)Oc3cc2cc(c3O[C@@H]2O[C@H](CO)[C@@H](O)[C@H](O)[C@H]2O[C@H]2C[C@](C)(N)[C@H](O)[C@H](C)O2)Oc2ccc(cc2Cl)[C@H]1O` [Vancomycin], for which the proliferation/viability signal result with Group-A Streptococci [4] is given as “very strong reduction in the proliferation/viability signal”. The cytotoxicity signal result in the data set with Group-A Streptococci [5] is “little or no direct cytotoxicity”; in the data set with E. coli strain K1 [2] (E. coli K1, three hours after antibiotics were added (FIG. 13)), “slight but statistically significant toxicity”. Further, the “toxicity by CFU assay” value with E. coli is on record as “toxic”. Also, the Cytotoxicity entry with E. coli strain K1 [2] (E. coli, Table V, DeathTRAK cytotoxicity readout) is recorded as “+”. The effect on proliferation/viability entry in the data set on E. coli strain K1 [3] (setting [6]) is recorded as “slight inhibition of proliferation/viability”. Besides, the Proliferation/Viability result with E. coli strain K1 [3] is “+”.

For the compound Gentamicin, in the data set with Group-A Streptococci [4], the proliferation/viability signal entry is given as “strongly toxic”. In addition, the cytotoxicity signal entry in the data set on Group-A Streptococci [5] is listed as “negative toxicity signal”. Also, the Cytotoxicity result in the data set on E. coli strain K1 [2] (E. coli K1, 90 minutes (FIG. 15)) is on record as “no cytotoxicity”. The effect on proliferation/viability entry in the data set on E. coli strain K1 [3] (E. coli K1, similar experiment, 90 minutes (FIG. 15)) is “strong effect on proliferation/viability”. For the same compound, in the data set with E. coli strain K1 [3], the Proliferation/Viability result is “+”.

For the compound Nonidet P-40, the “inhibition of DeathTRAK signal” value with DeathTRAK signal is on record as “approximately 45%”.
